From patent US20090198069A1, “METAL COMPLEX, LIGHT-EMITTING DEVICE AND DISPLAY” (NAGASAKI UNIVERSITY, NATIONAL UNIVERSITY CORPORATI, priority 2005, published 2009)

Assay: Solubility in a solvent (qualitative)
Type: physicochemical
[1] = dichloromethane (methylene chloride)

SMILES | solubility in a solvent (acetone) | solubility in a solvent (acetonitrile) | solubility in a solvent (benzene) | solubility in a solvent (chloroform) | solubility in a solvent [1] | solubility in a solvent (toluene) | solubility in a solvent (hexane) | solubility in a solvent (methanol) | solubility in a solvent (diethyl ether) | solubility in a solvent (water)
[Cl][Pt-2]([n]1nc(-c2ccccc2)cc1-c1ccccc1)([n+]1[nH]c(-c2ccccc2)cc1-c1ccccc1)[n+]1[nH]c(-c2ccccc2)cc1-c1ccccc1 [[PtCl(dppz)(dppzH)2]] | readily soluble | soluble | soluble | readily soluble | readily soluble | soluble | – | – | – | –
c1ccc(-c2cc(-c3ccccc3)[n+]3[n]2[Pt-2]24[Cl+][Ag-][n]5c(-c6ccccc6)cc(-c6ccccc6)[n+]5[Pt-2]([Cl+][Ag-][n]5c(-c6ccccc6)cc(-c6ccccc6)[n+]52)([n]2c(-c5ccccc5)cc(-c5ccccc5)[n+]2[Ag-][n]2c(-c5ccccc5)cc(-c5ccccc5)[n+]24)[n+]2c(-c4ccccc4)cc(-c4ccccc4)[n]2[Ag-]3)cc1 [[Pt2Ag4(μ-Cl)2(μ-dppz)6]] | – | slightly soluble | soluble | readily soluble | readily soluble | soluble | – | – | – | –
CC(C)(C)c1cc[n+]2[n]1[Ag-][n+]1c(C(C)(C)C)cc[n]1[Pt-2]13[n]4ccc(C(C)(C)C)[n+]4[Ag-][n]4c(C(C)(C)C)cc[n+]4[Pt-2]2([n]2ccc(C(C)(C)C)[n+]2[Ag-][n]2c(C(C)(C)C)cc[n+]21)[n]1ccc(C(C)(C)C)[n+]1[Ag-][n]1c(C(C)(C)C)cc[n+]13 [[Pt2Ag4(μ-3-^tBupz)8]] | – | – | – | readily soluble | readily soluble | – | – | – | – | –
CC(C)(C)c1cc[n-]n1.CC(C)(C)c1cc[n-]n1.CC(C)(C)c1cc[nH]n1.CC(C)(C)c1cc[nH]n1.[Pt+2] [[Pt(3-^tBupz)2(3-^tBupzH)2]] | soluble | – | – | readily soluble | readily soluble | – | soluble | soluble | – | –
CC(C)(C)c1ccn[nH]1.CC(C)(C)c1ccn[nH]1.CC(C)(C)c1ccn[nH]1.CC(C)(C)c1ccn[nH]1.[Cl-].[Cl-].[Pt+2] [[Pt(3-^tBupzH)4]Cl2] | – | – | – | readily soluble | readily soluble | soluble | – | soluble | – | –
Cc1ccn[n]1[Pt-2]([n]1nccc1C)([n+]1[nH]ccc1C)[n+]1[nH]ccc1C.Cc1ccn[n]1[Pt-2]([n]1nccc1C)([n+]1[nH]ccc1C)[n+]1[nH]ccc1C [[{Pt(3-Mepz)2(3-MepzH)2}2]] | – | – | soluble | readily soluble | readily soluble | soluble | – | – | soluble | –

Further lines, results first:

solubility in a solvent (acetone) | solubility in a solvent (acetonitrile) | solubility in a solvent (benzene) | solubility in a solvent (chloroform) | solubility in a solvent [1] | solubility in a solvent (toluene) | solubility in a solvent (hexane) | solubility in a solvent (methanol) | solubility in a solvent (diethyl ether) | solubility in a solvent (water) | SMILES
not soluble | moderately soluble | highly soluble | extremely highly soluble | extremely highly soluble | highly soluble | moderately soluble | not soluble | – | – | Cc1cc(C)[n+]2[n]1[Pt-2]13[n]4c(C)cc(C)[n+]4[Ag-][n]4c(C)cc(C)[n+]4[Pt-2]([n]4c(C)cc(C)[n+]4[Ag-][n]4c(C)cc(C)[n+]41)([n]1c(C)cc(C)[n+]1[Ag-][n]1c(C)cc(C)[n+]13)[n+]1c(C)cc(C)[n]1[Ag-]2 [[Pt2Ag4(μ-dmpz)8]]
– | – | – | soluble | soluble | – | – | – | – | – | CC(C)(C)c1cc[n+]2[n]1[Cu-][n+]1c(C(C)(C)C)cc[n]1[Pt-2]13[n]4ccc(C(C)(C)C)[n+]4[Cu-][n]4c(C(C)(C)C)cc[n+]4[Pt-2]2([n]2ccc(C(C)(C)C)[n+]2[Cu-][n]2c(C(C)(C)C)cc[n+]21)[n]1ccc(C(C)(C)C)[n+]1[Cu-][n]1c(C(C)(C)C)cc[n+]13 [[Pt2Cu4(μ-3-^tBupz)8]]
– | slightly soluble | slightly soluble | soluble | soluble | slightly soluble | – | – | – | – | Cc1cc[n+]2[n]1[Pt-2]13[n]4c(C)cc[n+]4[Ag-][n]4ccc(C)[n+]4[Pt-2]([n]4c(C)cc[n+]4[Ag-][n]4ccc(C)[n+]41)([n]1c(C)cc[n+]1[Ag-][n]1ccc(C)[n+]13)[n+]1c(C)cc[n]1[Ag-]2 [[Pt2Ag4(μ-3-Mepz)8]]
not soluble | moderately soluble | highly soluble | extremely highly soluble | extremely highly soluble | highly soluble | – | not soluble | moderately soluble | not soluble | Cc1cc(C)[n]([Pt-2]([n]2nc(C)cc2C)([n+]2[nH]c(C)cc2C)[n+]2[nH]c(C)cc2C)n1.Cc1cc(C)[n]([Pt-2]([n]2nc(C)cc2C)([n+]2[nH]c(C)cc2C)[n+]2[nH]c(C)cc2C)n1 [[{Pt(dmpz)2(dmpzH)2}2]]
slightly soluble | poorly soluble | – | soluble | soluble | poorly soluble | – | poorly soluble | slightly soluble | – | Cc1cc(C)[n+]2[n]1[Pt-2]13[n]4c(C)cc(C)[n+]4[Cu-][n]4c(C)cc(C)[n+]4[Pt-2]([n]4c(C)cc(C)[n+]4[Cu-][n]4c(C)cc(C)[n+]41)([n]1c(C)cc(C)[n+]1[Cu-][n]1c(C)cc(C)[n+]13)[n+]1c(C)cc(C)[n]1[Cu-]2 [[Pt2Cu4(μ-dmpz)8]]
